Results reported in ChEMBL document CHEMBL2074418, “Limited oral bioavailability and active epithelial excretion of paclitaxel (Taxol) caused by P-glycoprotein in the intestine” (Proc Natl Acad Sci U S A, 1997).

Columns and labels:
[1] = target: T1, ATP-dependent translocase ABCB1 (Mus musculus, UniProt P21447); assay: TP_TRANSPORTER: increase in bioavailability in mdr1a(-/-) mouse; format: functional, organism-based; details: in vivo
[2] = target: T1, ATP-dependent translocase ABCB1; assay: TP_TRANSPORTER: increase in plasma concentration in mdr1a(-/-) mouse; format: functional, organism-based; details: in vivo

T1 sequence (P21447 whole entry): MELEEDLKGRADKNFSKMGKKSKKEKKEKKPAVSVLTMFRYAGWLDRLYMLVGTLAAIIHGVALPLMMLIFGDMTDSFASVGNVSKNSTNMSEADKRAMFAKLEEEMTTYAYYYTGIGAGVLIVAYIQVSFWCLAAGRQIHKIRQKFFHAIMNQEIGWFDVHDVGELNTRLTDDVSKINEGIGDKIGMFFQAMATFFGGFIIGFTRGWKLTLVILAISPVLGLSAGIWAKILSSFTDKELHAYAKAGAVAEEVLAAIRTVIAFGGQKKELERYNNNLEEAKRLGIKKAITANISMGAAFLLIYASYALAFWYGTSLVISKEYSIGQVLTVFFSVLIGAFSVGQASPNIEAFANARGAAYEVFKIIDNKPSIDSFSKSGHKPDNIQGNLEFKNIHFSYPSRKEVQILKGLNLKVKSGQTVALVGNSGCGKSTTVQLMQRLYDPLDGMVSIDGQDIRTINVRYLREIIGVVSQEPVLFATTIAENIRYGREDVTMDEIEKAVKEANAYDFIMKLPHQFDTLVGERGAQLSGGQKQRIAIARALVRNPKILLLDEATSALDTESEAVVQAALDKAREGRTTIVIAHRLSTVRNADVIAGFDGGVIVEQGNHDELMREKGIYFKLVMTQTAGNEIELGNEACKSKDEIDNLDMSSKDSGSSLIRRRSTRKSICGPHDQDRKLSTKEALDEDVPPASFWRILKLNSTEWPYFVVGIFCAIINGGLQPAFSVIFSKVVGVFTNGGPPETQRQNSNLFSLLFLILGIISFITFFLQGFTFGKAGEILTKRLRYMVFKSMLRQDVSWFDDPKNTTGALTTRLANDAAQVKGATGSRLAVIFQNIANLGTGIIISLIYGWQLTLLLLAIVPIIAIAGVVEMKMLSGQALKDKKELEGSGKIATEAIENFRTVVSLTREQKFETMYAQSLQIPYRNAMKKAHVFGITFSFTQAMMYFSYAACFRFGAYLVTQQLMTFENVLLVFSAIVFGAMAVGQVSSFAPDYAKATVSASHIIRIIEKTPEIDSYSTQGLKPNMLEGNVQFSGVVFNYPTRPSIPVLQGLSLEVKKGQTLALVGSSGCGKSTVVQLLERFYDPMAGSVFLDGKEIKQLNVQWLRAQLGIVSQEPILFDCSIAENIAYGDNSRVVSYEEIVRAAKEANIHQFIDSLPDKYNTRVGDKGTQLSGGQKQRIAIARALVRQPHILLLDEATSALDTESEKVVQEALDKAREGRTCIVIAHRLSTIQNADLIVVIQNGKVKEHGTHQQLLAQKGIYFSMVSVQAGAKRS

Activity [1]: substrate [+]
Activity [2]: substrate [+]
SMILES: CC(=O)O[C@H]1C(=O)[C@@]2(C)[C@H]([C@H](OC(=O)c3ccccc3)[C@]3(O)C[C@H](OC(=O)[C@H](O)[C@@H](NC(=O)c4ccccc4)c4ccccc4)C(C)=C1C3(C)C)[C@]1(OC(C)=O)CO[C@@H]1C[C@@H]2O [PACLITAXEL]
